Test results taken from US20220085295A1, “Novel Compound and Organic Light Emitting Device Comprising the Same” (LG Chem, Ltd., priority 2019, published 2022).

Test: Solubility experiment in toluene
Format: physicochemical
Conditions: in toluene at room temperature/normal pressure

In the case of `CC(C)(C)c1ccc(N(c2ccc(C(C)(C)C)cc2)c2ccc(C3(c4ccc(C(C)(C)C)cc4)c4cc(N(c5ccc(C(C)(C)C)cc5)c5cccc6c5oc5ccccc56)ccc4-c4c3cc(N(c3ccc(C(C)(C)C)cc3)c3cccc5c3oc3ccccc35)c3c4-c4ccccc4C3(C)C)cc2)cc1` (stereo not shown) [Compound 4], the “Solubility (wt %)” value is reported as 5.5 wt %.

In the case of `CC(C)(C)c1ccc(N(c2ccccc2)c2ccc3c(c2)C2(c4ccccc4-c4ccccc42)c2cc(N(c4ccccc4)c4ccc(C(C)(C)C)cc4)c4c(oc5ccccc54)c2-3)cc1` [Compound BD, reference compound], the “Solubility (wt %)” value is reported as 2.0 wt %.

In the case of `CC(C)(C)c1ccc(N(c2ccc(C(C)(C)C)cc2)c2ccc(C3(c4ccc(C(C)(C)C)cc4)c4cc(N(c5ccccc5)c5ccc(C(C)(C)C)cc5)ccc4-c4c3cc(N(c3ccccc3)c3ccc(C(C)(C)C)cc3)c3oc5ccccc5c43)cc2)cc1` (stereo not shown) [Compound 1], the “Solubility (wt %)” value is reported as 4.5 wt %.

In the case of `CC(C)(C)c1ccc(Oc2ccc(C3(c4ccc(C(C)(C)C)cc4)c4cc(N(c5ccccc5)c5ccc(C(C)(C)C)cc5)c5c(oc6ccccc65)c4-c4c3cc(N(c3ccccc3)c3ccc(C(C)(C)C)cc3)c3oc5ccccc5c43)cc2)cc1` (stereo not shown) [Compound 7], the “Solubility (wt %)” value is reported as 3.8 wt %.

For `CC(C)(C)c1ccc(N(c2ccc(C(C)(C)C)cc2)c2ccc(C3(c4ccc(C(C)(C)C)cc4)c4cc(N(c5ccc(C(C)(C)C)cc5)c5cccc6c5oc5ccccc56)c5c(oc6ccccc65)c4-c4c3cc(N(c3ccc(C(C)(C)C)cc3)c3cccc5c3oc3ccccc35)c3oc5ccccc5c43)cc2)cc1` (stereo not shown) [Compound 6], the “Solubility (wt %)” value was 4.1 wt %.

With `CC(C)(C)c1ccc(Sc2ccc(C3(c4ccc(C(C)(C)C)cc4)c4cc(N(c5ccccc5)c5ccc(C(C)(C)C)cc5)c5c(oc6ccccc65)c4-c4c3cc(N(c3ccccc3)c3ccc(C(C)(C)C)cc3)c3oc5ccccc5c43)cc2)cc1` (stereo not shown) [Compound 8] the “Solubility (wt %)” value was 3.9 wt %.

In the case of `CC(C)(C)c1ccc(N(c2ccc(C(C)(C)C)cc2)c2ccc(C3(c4ccc(C(C)(C)C)cc4)c4cc(N(c5ccccc5)c5ccc(C(C)(C)C)cc5)c5c(oc6ccccc65)c4-c4c3cc(N(c3ccccc3)c3ccc(C(C)(C)C)cc3)c3oc5ccccc5c43)cc2)cc1` (stereo not shown) [Compound 5], the “Solubility (wt %)” value is reported as 3.9 wt %.

In the case of `CC(C)(C)c1ccc(N(c2ccc(C(C)(C)C)cc2)c2ccc(C3(c4ccc(C(C)(C)C)cc4)c4cc(N(c5ccc(C(C)(C)C)cc5)c5cccc6c5oc5ccccc56)ccc4-c4c3cc(N(c3ccc(C(C)(C)C)cc3)c3cccc5c3oc3ccccc35)c3oc5ccccc5c43)cc2)cc1` (stereo not shown) [Compound 2], the “Solubility (wt %)” value is reported as 4.7 wt %.

In the case of `Cc1ccc(C)c(C2(c3ccc([Si](C)(C)C)cc3)c3cc(N(c4ccccc4)c4ccc(C(C)(C)C)cc4)c4c(oc5ccccc54)c3-c3c2cc(N(c2ccccc2)c2ccc(C(C)(C)C)cc2)c2oc4ccccc4c32)c1` (stereo not shown) [Compound 9], the “Solubility (wt %)” value is reported as 3.4 wt %.

For `CC(C)(C)c1ccc(N(c2ccc(C(C)(C)C)cc2)c2ccc(C3(c4ccc(C(C)(C)C)cc4)c4cc(N(c5ccccc5)c5ccc(C(C)(C)C)cc5)ccc4-c4c3cc(N(c3ccccc3)c3ccc(C(C)(C)C)cc3)c3c4-c4ccccc4C3(C)C)cc2)cc1` (stereo not shown) [Compound 3], the “Solubility (wt %)” value was 5.8 wt %.
